Laboratory results: patent publication US8674113B2, “Compounds” (Boehringer Ingelheim International GmbH, priority 2010, dated 2014)

Tests used:
mPGES-1 in A549 cells = mPGES-1 in A549 cells (Homo sapiens (Human), UniProt O14684); assay: A549 cell-based assay (PGE2 formation, 50% human serum); conditions: IL-1β 5 ng/ml, 10 nM arachidonic acid, 20-24 h, read-out: mPGES-1 inhibitory effect IC50 in the cell assay
Method in brief: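 PGE2 release, read by HTRF and set to 100% for vehicle, gave IC50s from 6-8 point titrations. Human A549 cells were exposed to compound for 20-24 h in medium with 50% human serum, with IL-1β (5 ng/ml) and arachidonic acid (10 nM) as stimulus.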

[1] = target: recombinant human mPGES-1 (Homo sapiens (Human), UniProt O14684); assay: mPGES-1 enzyme assay (HTRF detection of PGE2); format: biochemical; conditions: recombinant human mPGES-1 microsomes, PGH2 2 μM, 60 seconds; read-out: mPGES-1 inhibitory effect IC50 in the enzyme assay
Method in brief: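 Microsomes from E. coli expressing recombinant human mPGES-1 (~0.5 μg protein/well) in 0.1 M phosphate pH 7.4 with 2.5 mM GSH, pre-incubated with compound 25 min at room temperature. PGH2 (2 μM final) added, reaction stopped with FeCl2 after 60 s; PGE2 quantified by HTRF (665/620 ratio) against a calibration curve, IC50 by nonlinear regression after background subtraction.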

recombinant human mPGES-1, sequence (O14684 whole entry): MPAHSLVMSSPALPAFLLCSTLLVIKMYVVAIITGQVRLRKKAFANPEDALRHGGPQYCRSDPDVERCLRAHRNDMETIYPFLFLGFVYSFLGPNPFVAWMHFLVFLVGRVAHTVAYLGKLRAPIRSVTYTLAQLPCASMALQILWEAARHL
mPGES-1 in A549 cells, sequence (O14684 whole entry): as above

SMILES	IC50 (mPGES-1 in A549 cells) [nM]	IC50 [1] [nM]
Cn1c(Nc2c(Cl)ccc(CNC(=O)C(C)(C)C)c2Cl)nc2cc(C(=O)N[C@H]3CC[C@H](C(F)(F)F)CC3)c(N3CCC(C(F)(F)F)C3)cc21 (stereo partly shown) [Example 100]	1	3
Cn1c(Nc2c(Cl)ccc(CNC(=O)C(C)(C)C)c2Cl)nc2cc(C(=O)N[C@H]3CC[C@H](C(F)(F)F)CC3)c(N3CC4CCCC4C3)cc21 (stereo partly shown) [Example 101]	1.5	2
Cn1c(Nc2c(Cl)ccc(CNC(=O)C(C)(C)C)c2Cl)nc2cc(C(=O)N[C@H]3CC[C@H](C(F)(F)F)CC3)c(N3CC4COCC4C3)cc21 (stereo partly shown) [Example 102]	1.5	2
Cn1c(Nc2c(Cl)ccc(CNC(=O)C(C)(C)C)c2Cl)nc2cc(C(=O)N[C@H]3CC[C@H](C(F)(F)F)CC3)c(N3CCN(C4CC4)CC3)cc21 [Example 108]	< 1	1
CN(c1cc2c(cc1C(=O)N[C@H]1CC[C@H](C(F)(F)F)CC1)nc(Nc1c(Cl)ccc(CNC(=O)C(C)(C)C)c1Cl)n2C)C1CCS(=O)(=O)C1 (stereo partly drawn) [Example 119, N-(trans-4-Trifluoromethyl-cyclohexyl)-2-{2,6-dichloro-3-[(2,2-dimethyl-propionylamino)-methyl]-phenylamino}-6-[N-methyl-N-(1,1-dioxo-tetrahydro-thiophen-3-yl)-amino]-1-methyl-1H-benzimidazole-5-carboxylic acid amide]	1	2
Cn1c(Nc2c(Cl)ccc(CNC(=O)C(C)(C)F)c2Cl)nc2cc(C(=O)N[C@H]3CC[C@H](C(F)(F)F)CC3)c(N3CC[C@@H](F)C3)cc21 [Example 120]	1	3
Cn1c(Nc2c(Cl)ccc(CNC(=O)C(C)(C)C)c2Cl)nc2cc(C(=O)N[C@H]3CC[C@H](C(F)(F)F)CC3)c(N3CCC4(CC4)C3)cc21 [Example 121]	2	3
Cn1c(Nc2c(Cl)ccc(CNC(=O)C(C)(C)C)c2Cl)nc2cc(C(=O)N[C@H]3CC[C@H](C(F)(F)F)CC3)c(N3CC4CCC4C3)cc21 (stereo partly shown) [Example 122]	1	3
Cn1c(Nc2c(Cl)ccc(CNC(=O)C(C)(C)C)c2Cl)nc2cc(C(=O)N[C@H]3CC[C@H](C(F)(F)F)CC3)c(N3C[C@H]4C[C@@H](C3)[C@H]4O)cc21 [Example 126]	1	2
Cn1c(Nc2c(Cl)ccc(CNC(=O)C(C)(C)C(F)(F)F)c2Cl)nc2cc(C(=O)N[C@H]3CC[C@H](C(F)(F)F)CC3)c(N3CC[C@@H](F)C3)cc21 [Example 128]	1	2
Cn1c(Nc2c(Cl)ccc(CNC(=O)C(C)(C)C)c2Cl)nc2cc(C(=O)N[C@H]3CC[C@H](C(F)(F)F)CC3)c(N3C[C@@H]4C[C@H]3CO4)cc21 [Example 129]	5	3
Cn1c(Nc2c(Cl)ccc(CNC(=O)C(C)(C)C)c2Cl)nc2cc(C(=O)N[C@H]3CC[C@H](C(F)(F)F)CC3)c(N3CCS(=O)(=O)CC3)cc21 [Example 130]	7	2
Cn1c(Nc2c(Cl)ccc(CNC(=O)C(C)(C)C)c2Cl)nc2cc(C(=O)N[C@H]3CC[C@H](C(F)(F)F)CC3)c(N3CCNC(C(F)(F)F)C3)cc21 (stereo partly shown) [Example 131]	1	2
Cn1c(Nc2c(Cl)ccc(CNC(=O)C(C)(C)C)c2Cl)nc2cc(C(=O)N[C@H]3CC[C@H](C(F)(F)F)CC3)c(N3CCN(CC(F)(F)F)CC3)cc21 [Example 132]	1.5	5
Cn1c(Nc2c(Cl)ccc(CNC(=O)C(C)(C)C)c2Cl)nc2cc(C(=O)N[C@H]3CC[C@H](C(F)(F)F)CC3)c(N3CCn4ncnc4C3)cc21 [Example 133]	10	3
Cn1c(Nc2c(Cl)ccc(CNC(=O)C(C)(C)C)c2Cl)nc2cc(C(=O)N[C@H]3CC[C@H](C(F)(F)F)CC3)c(N3CC4CCC(C3)O4)cc21 [Example 134]	< 1	2
Cn1c(Nc2c(Cl)ccc(CNC(=O)C(C)(C)C)c2Cl)nc2cc(C(=O)NCCC(F)(F)F)c(N3CC4CC4C3)cc21 (stereo not shown) [Example 135]	5	3
Cn1c(Nc2c(Cl)ccc(CNC(=O)C(C)(C)C)c2Cl)nc2cc(C(=O)Nc3ccc(OC(F)(F)F)cc3)c(N3CCCC(C(F)(F)F)C3)cc21 (stereo not shown) [Example 136]	1	3
CN(CC(F)F)c1cc2c(cc1C(=O)Nc1ccc(OC(F)(F)F)cc1)nc(Nc1c(Cl)ccc(CNC(=O)C(C)(C)C)c1Cl)n2C [Example 137]	< 1	3
Cn1c(Nc2c(Cl)ccc(CNC(=O)C(C)(C)C)c2F)nc2cc(C(=O)Nc3ccc(OC(F)(F)F)cc3)c(N3CC[C@@H](F)C3)cc21 [Example 138]	3	2

Next, values leading:

IC50 (mPGES-1 in A549 cells) [nM]	IC50 [1] [nM]	SMILES
21	16	Cn1c(Nc2c(Cl)ccc(CNC(=O)C(C)(C)C)c2Cl)nc2cc(C(=O)N[C@H]3CC[C@H](C(F)(F)F)CC3)c(N3CCC3)cc21 [Example 96]
5	5	COC1CN(c2cc3c(cc2C(=O)N[C@H]2CC[C@H](C(F)(F)F)CC2)nc(Nc2c(Cl)ccc(CNC(=O)C(C)(C)C)c2Cl)n3C)C1 [Example 98]
5	1	Cn1c(Nc2c(Cl)ccc(CNC(=O)C(C)(C)C)c2Cl)nc2cc(C(=O)N[C@H]3CC[C@H](C(F)(F)F)CC3)c(N3CC(OC(F)F)C3)cc21 [Example 99]
< 1	1	C#CCN(C)c1cc2c(cc1C(=O)N[C@H]1CC[C@H](C(F)(F)F)CC1)nc(Nc1c(Cl)ccc(CNC(=O)C(C)(C)C)c1Cl)n2C [Example 103, N-(trans-4-Trifluoromethyl-cyclohexyl)-2-{2,6-dichloro-3-[(2,2-dimethyl-propionylamino)-methyl]-phenylamino}-6-[N-methyl-N-propargylamino]-1-methyl-1H-benzimidazole-5-carboxylic acid amide]
1	2	COC(C)CN(C)c1cc2c(cc1C(=O)N[C@H]1CC[C@H](C(F)(F)F)CC1)nc(Nc1c(Cl)ccc(CNC(=O)C(C)(C)C)c1Cl)n2C (stereo partly shown) [Example 104]
10	2	CN(CCS(C)(=O)=O)c1cc2c(cc1C(=O)N[C@H]1CC[C@H](C(F)(F)F)CC1)nc(Nc1c(Cl)ccc(CNC(=O)C(C)(C)C)c1Cl)n2C [Example 105]
< 1	2	CC(O)CN(C)c1cc2c(cc1C(=O)N[C@H]1CC[C@H](C(F)(F)F)CC1)nc(Nc1c(Cl)ccc(CNC(=O)C(C)(C)C)c1Cl)n2C (stereo partly shown) [Example 106]
< 1	1	CN(CC1(C)CC1)c1cc2c(cc1C(=O)N[C@H]1CC[C@H](C(F)(F)F)CC1)nc(Nc1c(Cl)ccc(CNC(=O)C(C)(C)C)c1Cl)n2C [Example 107]
1	2	CN(CC(C)(C)O)c1cc2c(cc1C(=O)N[C@H]1CC[C@H](C(F)(F)F)CC1)nc(Nc1c(Cl)ccc(CNC(=O)C(C)(C)C)c1Cl)n2C [Example 109]
1.6	2	CN(Cc1ccc(F)cc1)c1cc2c(cc1C(=O)N[C@H]1CC[C@H](C(F)(F)F)CC1)nc(Nc1c(Cl)ccc(CNC(=O)C(C)(C)C)c1Cl)n2C [Example 110, N-(trans-4-Trifluoromethyl-cyclohexyl)-2-{2,6-dichloro-3-[(2,2-dimethyl-propionylamino)-methyl]-phenylamino}-6-[N-methyl-N-(4-fluorobenzyl)amino]-1-methyl-1H-benzimidazole-5-carboxylic acid amide]
22	2	CN(CC(N)=O)c1cc2c(cc1C(=O)N[C@H]1CC[C@H](C(F)(F)F)CC1)nc(Nc1c(Cl)ccc(CNC(=O)C(C)(C)F)c1Cl)n2C [Example 111]
1	3	CN(CC#N)c1cc2c(cc1C(=O)N[C@H]1CC[C@H](C(F)(F)F)CC1)nc(Nc1c(Cl)ccc(CNC(=O)C(C)(C)C)c1Cl)n2C [Example 112, N-(trans-4-Trifluoromethyl-cyclohexyl)-2-{2,6-dichloro-3-[(2,2-dimethyl-propionylamino)-methyl]-phenylamino}-6-[N-methyl-N-cyanomethyl-amino]-1-methyl-1H-benzimidazole-5-carboxylic acid amide]
62	8	Cn1ccnc1CNc1cc2c(cc1C(=O)N[C@H]1CC[C@H](C(F)(F)F)CC1)nc(Nc1c(Cl)ccc(CNC(=O)C(C)(C)C)c1Cl)n2C [Example 113]
2	2	CN(c1cc2c(cc1C(=O)N[C@H]1CC[C@H](C(F)(F)F)CC1)nc(Nc1c(Cl)ccc(CNC(=O)C(C)(C)C)c1Cl)n2C)C1CCSC1 (stereo partly drawn) [Example 117, N-(trans-4-trifluoromethyl-cyclohexyl)-2-{2,6-dichloro-3-[(2,2-dimethyl-propionylamino)-methyl]-phenylamino}-6-[N-methyl-N-(tetrahydro-thiophen-3-yl)-amino]-1-methyl-1H-benzimidazole-5-carboxylic acid amide]
10	3	CN(c1cc2c(cc1C(=O)N[C@H]1CC[C@H](C(F)(F)F)CC1)nc(Nc1c(Cl)ccc(CNC(=O)C(C)(C)C)c1Cl)n2C)C1CC[S+]([O-])C1 (stereo partly drawn) [Example 118, N-(trans-4-Trifluoromethyl-cyclohexyl)-2-{2,6-dichloro-3-[(2,2-dimethyl-propionylamino)-methyl]-phenylamino}-6-[N-methyl-N-(1-oxo-tetrahydro-thiophen-3-yl)-amino]-1-methyl-1H-benzimidazole-5-carboxylic acid amide]
